Measured values as given in PubChem BioAssay AID248 (DTP/NCI, 2004).
Values joined by “and” are separate entries in the source; they are usually repeats but may differ in a detail not shown here. Equal entries are not always repeated. Inconclusive results and toxic doses are left out. Cut-off read from the data, not from the text of the source: active = T/C of 150% or more; inactive = T/C below 125%.

System: L1210 leukemia ip in BDF1 mice, survival T/C
Experiment: NCI In Vivo Anticancer Drug Screen. Data for tumor model L1210 Leukemia (intraperitoneal) in B6D2F1 (BDF1) mice
Settings: endpoint: mean survival time, higher = longer survival
How it was run: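 Tumor was transplanted into mice, which were then dosed with test compound or vehicle alone. Survival was recorded for each group, and the treated figure was expressed relative to the control figure.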

[1] = dose: 50.0 mg/kg/injection, schedule: Q01DX001 (ip), vehicle: carboxymethylcellulose (CMC)
[2] = dose: 100.0 mg/kg/injection, schedule: Q01DX001 (ip), vehicle: carboxymethylcellulose (CMC)
[3] = dose: 100.0 mg/kg/injection, schedule: Q01DX001 (ip), vehicle: saline
[4] = dose: 200.0 mg/kg/injection, schedule: Q01DX001 (ip), vehicle: carboxymethylcellulose (CMC)
[5] = dose: 200.0 mg/kg/injection, schedule: Q01DX001 (ip), vehicle: saline
[6] = dose: 400.0 mg/kg/injection, schedule: Q01DX001 (ip), vehicle: carboxymethylcellulose (CMC)
[7] = dose: 400.0 mg/kg/injection, schedule: Q01DX001 (ip), vehicle: saline
[8] = dose: 100.0 mg/kg/injection, schedule: Q04DX003 (ip), vehicle: saline with Tween-80
[9] = dose: 200.0 mg/kg/injection, schedule: Q04DX003 (ip), vehicle: saline with Tween-80
[10] = dose: 400.0 mg/kg/injection, schedule: Q04DX003 (ip), vehicle: saline with Tween-80
[11] = dose: 100.0 mg/kg/injection, schedule: Q04DX002 (ip), vehicle: saline
[12] = dose: 200.0 mg/kg/injection, schedule: Q04DX002 (ip), vehicle: saline
[13] = dose: 100.0 mg/kg/injection, schedule: Q01DX009 (ip), vehicle: saline with Tween-80
[14] = dose: 200.0 mg/kg/injection, schedule: Q01DX009 (ip), vehicle: saline with Tween-80
[15] = dose: 400.0 mg/kg/injection, schedule: Q01DX009 (ip), vehicle: saline with Tween-80

Measured: T/C

Oc1cc(O)c(CN2CCOCC2)c(O)c1CN1CCOCC1
inactive: dose: 100.0 mg/kg/injection, schedule: Q01DX001 (ip), vehicle: other 98 % of control | dose: 200.0 mg/kg/injection, schedule: Q01DX001 (ip), vehicle: other 100 % of control | dose: 400.0 mg/kg/injection, schedule: Q01DX001 (ip), vehicle: other 95 % of control

O=C(Nc1ccccn1)Nc1ccc([N+](=O)[O-])cc1[N+](=O)[O-]
inactive: dose: 100.0 mg/kg/injection, schedule: Q04DX002 (ip), vehicle: Klucel (hydroxypropylcellulose) (HPC) 108 % of control | dose: 200.0 mg/kg/injection, schedule: Q04DX002 (ip), vehicle: Klucel (hydroxypropylcellulose) (HPC) 104 % of control | dose: 400.0 mg/kg/injection, schedule: Q04DX002 (ip), vehicle: Klucel (hydroxypropylcellulose) (HPC) 97 % of control

CN(C)c1nc(N)nc(Nc2ccc(Br)cc2)c1N=O
inactive: [1] 109 % of control | [2] 95 % of control | [3] 105 % of control | dose: 100.0 mg/kg/injection, schedule: Q01DX009 (ip), vehicle: saline 107 % of control | dose: 100.0 mg/kg/injection, schedule: Q04DX003 (ip), vehicle: saline 107 % of control | [4] 103 % of control | [5] 116 % of control | dose: 200.0 mg/kg/injection, schedule: Q01DX009 (ip), vehicle: saline 119 % of control | dose: 200.0 mg/kg/injection, schedule: Q04DX003 (ip), vehicle: saline 98 % of control | [6] 95 % of control | [7] 116 % of control | dose: 400.0 mg/kg/injection, schedule: Q01DX009 (ip), vehicle: saline 109 % of control | dose: 400.0 mg/kg/injection, schedule: Q04DX003 (ip), vehicle: saline 96 % of control

Clc1cc2c(c3c1CONC3)OCO2
inactive: [8] 92 % of control | [9] 90 % of control | [10] 100 % of control

Cn1nc(C(=O)O)c2c(N)ncnc21
inactive: dose: 50.0 mg/kg/injection, schedule: Q04DX002 (ip), vehicle: saline 103 % of control | [11] 95 % of control | [12] 98 % of control

CC1(c2ccccc2)CCc2ccccc21 (stereo unspecified)
inactive: [8] 100 % of control | [9] 98 % of control | [10] 98 % of control

O=C1C(=O)c2cc(Cl)ccc2-c2ccc(Cl)cc21
inactive: [1] 97 % of control | [2] 106 % of control | [4] 103 % of control | [6] 97 % of control

Nc1nc2c(ncn2C2OC(CO)C(O)C2O)c(=O)[nH]1 (stereo unspecified)
inactive: dose: 5.0 mg/kg/injection, schedule: Q01DX001 (ip), vehicle: saline 102 % of control | dose: 10.0 mg/kg/injection, schedule: Q01DX001 (ip), vehicle: saline 105 % of control | dose: 20.0 mg/kg/injection, schedule: Q01DX001 (ip), vehicle: saline 97 % of control | dose: 40.0 mg/kg/injection, schedule: Q01DX001 (ip), vehicle: saline 103 % of control | dose: 80.0 mg/kg/injection, schedule: Q01DX001 (ip), vehicle: saline 108 % of control | [2] 100 % of control | [3] 101 % of control and 105 % of control | [4] 97 % of control | [5] 101 % of control | [6] 97 % of control

Nc1ccnc2cc(Cl)ccc12
inactive: dose: 75.0 mg/kg/injection, schedule: Q01DX001 (ip), vehicle: other 103 % of control | dose: 150.0 mg/kg/injection, schedule: Q01DX001 (ip), vehicle: other 100 % of control

Nc1nc2c(ncn2-c2ccc(NS(=O)(=O)c3cccc(S(=O)(=O)F)c3)cc2)c(=O)[nH]1
inactive: dose: 75.0 mg/kg/injection, schedule: Q01DX001 (ip), vehicle: Klucel (hydroxypropylcellulose) (HPC) 97 % of control | dose: 300.0 mg/kg/injection, schedule: Q01DX001 (ip), vehicle: Klucel (hydroxypropylcellulose) (HPC) 88 % of control

CN(CC(=O)c1ccc(-c2ccccc2)cc1)C(=O)c1ccccc1
inactive: dose: 75.0 mg/kg/injection, schedule: Q04DX003 (ip), vehicle: Klucel (hydroxypropylcellulose) (HPC) 96 % of control | dose: 150.0 mg/kg/injection, schedule: Q04DX003 (ip), vehicle: Klucel (hydroxypropylcellulose) (HPC) 89 % of control | dose: 300.0 mg/kg/injection, schedule: Q04DX003 (ip), vehicle: Klucel (hydroxypropylcellulose) (HPC) 89 % of control

NC(CSSc1ccccc1)=NC1CCCCC1
inactive: dose: 12.5 mg/kg/injection, schedule: Q04DX002 (ip), vehicle: other 98 % of control | dose: 25.0 mg/kg/injection, schedule: Q04DX002 (ip), vehicle: other 109 % of control | dose: 50.0 mg/kg/injection, schedule: Q04DX002 (ip), vehicle: other 91 % of control

COc1ccc(CSC(=S)NNc2ccccc2)cc1
inactive: dose: 100.0 mg/kg/injection, schedule: Q01DX009 (ip), vehicle: Klucel (hydroxypropylcellulose) (HPC) 96 % of control | dose: 100.0 mg/kg/injection, schedule: Q04DX003 (ip), vehicle: Klucel (hydroxypropylcellulose) (HPC) 98 % of control | dose: 200.0 mg/kg/injection, schedule: Q01DX009 (ip), vehicle: Klucel (hydroxypropylcellulose) (HPC) 86 % of control | dose: 200.0 mg/kg/injection, schedule: Q04DX003 (ip), vehicle: Klucel (hydroxypropylcellulose) (HPC) 93 % of control | dose: 400.0 mg/kg/injection, schedule: Q01DX009 (ip), vehicle: Klucel (hydroxypropylcellulose) (HPC) 87 % of control | dose: 400.0 mg/kg/injection, schedule: Q04DX003 (ip), vehicle: Klucel (hydroxypropylcellulose) (HPC) 90 % of control

CCN(CC)CCC(=O)OC
inactive: dose: 50.0 mg/kg/injection, schedule: Q01DX001 (ip), vehicle: saline 97 % of control | [3] 100 % of control | [5] 100 % of control | [7] 97 % of control

Cc1cc(NC(=O)Nc2ccccc2C)no1
inactive: [13] 89 % of control | [8] 97 % of control | [14] 93 % of control | [9] 101 % of control | [15] 91 % of control | [10] 97 % of control

CCCCCOC(=O)C(C)(O)C(Cl)c1ccccc1 (stereo unspecified)
inactive: [11] 102 % of control and 106 % of control | [12] 98 % of control and 103 % of control | dose: 400.0 mg/kg/injection, schedule: Q04DX002 (ip), vehicle: saline 91 % of control | dose: 600.0 mg/kg/injection, schedule: Q04DX002 (ip), vehicle: saline 117 % of control

O=Cc1ccc(O)c(CN2CCCCC2)c1
inactive: dose: 6.25 mg/kg/injection, schedule: Q01DX009 (ip), vehicle: saline 94 % of control | dose: 6.25 mg/kg/injection, schedule: Q04DX003 (ip), vehicle: saline 100 % of control | dose: 12.5 mg/kg/injection, schedule: Q01DX009 (ip), vehicle: saline 107 % of control | dose: 12.5 mg/kg/injection, schedule: Q04DX003 (ip), vehicle: saline 96 % of control | dose: 25.0 mg/kg/injection, schedule: Q01DX009 (ip), vehicle: saline 96 % of control | dose: 25.0 mg/kg/injection, schedule: Q04DX003 (ip), vehicle: saline 103 % of control

c1ccc2sc(SN3CCOCC3)nc2c1
inactive: [13] 95 % of control | [8] 100 % of control | [14] 92 % of control | [9] 87 % of control | [15] 92 % of control | [10] 89 % of control

C=C1C(=O)OC2C1CCC(=C)C1CC(O)C(=C)C12 (stereo unspecified)
inactive: dose: 67.0 mg/kg/injection, schedule: Q01DX009 (ip), vehicle: saline with Tween-80 103 % of control | [13] 105 % of control
